Measurements: patent US20130129720A1, “Combination Cancer Therapies with Wortmannin Analogs” (ONCOTHYREON INC., priority 2010, published 2013)

How the values were obtained:
[1] = target: PIK3CA (Homo sapiens, UniProt P42336); assay: in vitro kinase assay, PIK3CA; type: biochemical
Source text: (§1) Table 1 illustrates the potency of 17-hydroxy PX-866 metabolite in in vitro kinase assays: […]

[2] = target: PIK3CB (Homo sapiens, UniProt P42338); assay: in vitro kinase assay, PIK3CB; type: biochemical
PIK3CB, sequence (P42338 whole entry): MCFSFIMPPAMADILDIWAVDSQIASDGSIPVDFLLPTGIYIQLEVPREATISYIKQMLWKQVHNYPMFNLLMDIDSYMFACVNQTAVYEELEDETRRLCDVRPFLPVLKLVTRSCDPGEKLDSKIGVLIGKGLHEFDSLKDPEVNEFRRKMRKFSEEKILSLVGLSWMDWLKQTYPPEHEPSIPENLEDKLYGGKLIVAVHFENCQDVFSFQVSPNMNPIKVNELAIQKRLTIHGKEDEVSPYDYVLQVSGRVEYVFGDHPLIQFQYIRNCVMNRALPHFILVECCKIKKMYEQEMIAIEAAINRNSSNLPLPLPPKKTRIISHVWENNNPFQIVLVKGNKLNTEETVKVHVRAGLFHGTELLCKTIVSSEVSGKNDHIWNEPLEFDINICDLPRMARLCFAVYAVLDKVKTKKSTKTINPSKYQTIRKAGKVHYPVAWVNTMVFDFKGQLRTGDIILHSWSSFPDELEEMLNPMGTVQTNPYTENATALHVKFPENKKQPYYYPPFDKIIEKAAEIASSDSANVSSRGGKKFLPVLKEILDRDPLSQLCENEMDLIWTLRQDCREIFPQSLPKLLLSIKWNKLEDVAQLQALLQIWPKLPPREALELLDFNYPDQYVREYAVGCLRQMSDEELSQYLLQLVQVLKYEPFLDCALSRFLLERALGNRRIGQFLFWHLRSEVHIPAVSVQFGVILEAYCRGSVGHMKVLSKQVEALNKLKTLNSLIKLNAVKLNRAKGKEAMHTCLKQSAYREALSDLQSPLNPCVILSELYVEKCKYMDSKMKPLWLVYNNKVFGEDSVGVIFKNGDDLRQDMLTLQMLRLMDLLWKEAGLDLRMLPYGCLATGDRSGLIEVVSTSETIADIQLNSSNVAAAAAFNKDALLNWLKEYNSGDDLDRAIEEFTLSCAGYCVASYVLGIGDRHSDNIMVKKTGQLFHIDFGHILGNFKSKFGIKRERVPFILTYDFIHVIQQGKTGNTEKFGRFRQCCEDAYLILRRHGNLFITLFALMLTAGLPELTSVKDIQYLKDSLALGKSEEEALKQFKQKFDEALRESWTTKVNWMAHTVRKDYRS
PIK3CB, sequence (P27986 whole entry partner): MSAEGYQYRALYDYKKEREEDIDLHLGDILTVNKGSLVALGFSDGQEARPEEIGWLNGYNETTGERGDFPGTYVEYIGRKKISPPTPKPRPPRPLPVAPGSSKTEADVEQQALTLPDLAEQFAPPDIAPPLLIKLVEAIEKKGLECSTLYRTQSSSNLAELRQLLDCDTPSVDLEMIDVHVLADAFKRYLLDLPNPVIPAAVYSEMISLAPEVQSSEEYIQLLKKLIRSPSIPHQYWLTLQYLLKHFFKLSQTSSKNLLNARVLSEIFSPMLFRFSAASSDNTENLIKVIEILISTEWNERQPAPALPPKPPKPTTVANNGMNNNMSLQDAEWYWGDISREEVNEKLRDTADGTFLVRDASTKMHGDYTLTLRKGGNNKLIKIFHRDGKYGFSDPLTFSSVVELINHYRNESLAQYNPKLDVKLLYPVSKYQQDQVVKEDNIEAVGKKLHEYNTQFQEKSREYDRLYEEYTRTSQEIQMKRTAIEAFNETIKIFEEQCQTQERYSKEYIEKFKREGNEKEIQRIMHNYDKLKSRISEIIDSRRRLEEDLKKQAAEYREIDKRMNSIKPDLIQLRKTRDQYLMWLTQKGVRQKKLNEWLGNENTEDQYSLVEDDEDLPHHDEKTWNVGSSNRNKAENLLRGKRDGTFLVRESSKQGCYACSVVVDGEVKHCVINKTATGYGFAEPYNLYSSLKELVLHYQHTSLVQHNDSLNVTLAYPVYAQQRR
Source text: as §1

[3] = target: PIK3CD (Homo sapiens, UniProt O00329); assay: in vitro kinase assay, PIK3CD; type: biochemical
Source text: as §1

[4] = target: PIK3CG (Homo sapiens, UniProt P48736); assay: in vitro kinase assay, PIK3CG; type: biochemical
PIK3CG, sequence (P48736 whole entry): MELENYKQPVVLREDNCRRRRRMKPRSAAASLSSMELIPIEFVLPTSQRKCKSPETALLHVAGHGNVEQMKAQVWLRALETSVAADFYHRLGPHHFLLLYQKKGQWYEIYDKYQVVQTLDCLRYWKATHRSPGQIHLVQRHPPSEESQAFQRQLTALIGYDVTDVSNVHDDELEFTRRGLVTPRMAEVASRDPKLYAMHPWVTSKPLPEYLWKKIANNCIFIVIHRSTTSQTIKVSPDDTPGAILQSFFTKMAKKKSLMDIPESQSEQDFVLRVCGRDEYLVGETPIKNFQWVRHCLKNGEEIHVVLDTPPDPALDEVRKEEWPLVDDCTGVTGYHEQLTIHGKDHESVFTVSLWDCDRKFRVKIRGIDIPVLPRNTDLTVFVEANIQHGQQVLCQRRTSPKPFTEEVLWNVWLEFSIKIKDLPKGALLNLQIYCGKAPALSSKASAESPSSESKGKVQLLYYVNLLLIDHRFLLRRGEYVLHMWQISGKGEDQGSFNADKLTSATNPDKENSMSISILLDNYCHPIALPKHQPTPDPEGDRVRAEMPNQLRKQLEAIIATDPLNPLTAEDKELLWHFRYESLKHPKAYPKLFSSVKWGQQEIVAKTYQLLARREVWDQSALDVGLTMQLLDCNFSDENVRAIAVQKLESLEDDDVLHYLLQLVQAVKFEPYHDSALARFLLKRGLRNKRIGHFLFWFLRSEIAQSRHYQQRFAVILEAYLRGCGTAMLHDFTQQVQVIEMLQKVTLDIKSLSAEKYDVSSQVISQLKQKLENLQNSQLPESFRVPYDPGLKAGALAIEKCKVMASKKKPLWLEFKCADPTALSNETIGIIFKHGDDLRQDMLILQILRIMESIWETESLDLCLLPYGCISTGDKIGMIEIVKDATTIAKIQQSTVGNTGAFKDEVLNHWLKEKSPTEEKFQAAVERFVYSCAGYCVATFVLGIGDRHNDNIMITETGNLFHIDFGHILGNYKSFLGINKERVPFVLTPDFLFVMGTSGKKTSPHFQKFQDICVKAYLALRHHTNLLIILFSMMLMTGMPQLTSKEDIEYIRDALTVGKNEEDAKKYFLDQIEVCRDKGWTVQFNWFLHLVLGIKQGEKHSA
Source text: as §1

[5] = target: p110α (Homo sapiens, UniProt P42336); assay: cell based assays, p110α; conditions: for IC50: in cell based assays
p110α, sequence (P42336 whole entry, canonical isoform): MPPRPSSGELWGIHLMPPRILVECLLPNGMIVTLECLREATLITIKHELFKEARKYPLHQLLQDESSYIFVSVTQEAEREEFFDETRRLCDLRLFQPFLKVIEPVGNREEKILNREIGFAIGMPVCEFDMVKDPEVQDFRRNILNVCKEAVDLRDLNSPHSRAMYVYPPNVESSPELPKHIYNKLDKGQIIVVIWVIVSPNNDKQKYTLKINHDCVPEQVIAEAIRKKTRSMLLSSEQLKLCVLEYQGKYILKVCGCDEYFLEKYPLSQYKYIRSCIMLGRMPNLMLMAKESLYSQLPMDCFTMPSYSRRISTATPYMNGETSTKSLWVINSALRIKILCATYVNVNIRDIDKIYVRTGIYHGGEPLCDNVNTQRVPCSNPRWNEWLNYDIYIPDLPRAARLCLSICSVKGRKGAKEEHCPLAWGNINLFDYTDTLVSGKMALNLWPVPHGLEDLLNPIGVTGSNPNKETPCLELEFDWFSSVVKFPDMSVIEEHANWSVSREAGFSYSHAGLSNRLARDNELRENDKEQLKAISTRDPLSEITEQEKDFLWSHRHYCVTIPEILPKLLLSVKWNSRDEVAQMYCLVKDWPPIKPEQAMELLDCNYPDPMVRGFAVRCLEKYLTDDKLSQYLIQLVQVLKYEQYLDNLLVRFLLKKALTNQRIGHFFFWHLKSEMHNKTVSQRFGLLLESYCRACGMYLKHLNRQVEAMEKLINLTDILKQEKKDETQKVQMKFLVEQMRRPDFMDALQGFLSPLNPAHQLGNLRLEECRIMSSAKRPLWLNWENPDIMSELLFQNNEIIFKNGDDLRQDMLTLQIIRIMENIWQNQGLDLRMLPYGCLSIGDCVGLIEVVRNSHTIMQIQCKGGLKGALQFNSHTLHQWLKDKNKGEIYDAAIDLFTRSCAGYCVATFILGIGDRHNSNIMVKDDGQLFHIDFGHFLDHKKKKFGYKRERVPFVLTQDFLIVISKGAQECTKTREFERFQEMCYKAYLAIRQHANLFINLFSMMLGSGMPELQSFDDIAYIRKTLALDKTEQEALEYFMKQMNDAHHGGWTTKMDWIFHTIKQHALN
p110α, sequence (P27986 whole entry partner, canonical isoform): as the sequence (P27986 whole entry partner) above
Source text: (§2) PX-866 is an pan-isoform inhibitor of Class I P1-3K that covalently binds to ATP binding site of the p110 catalytic subunit. Described herein are studies that illustrate rapid metabolism of PX-866 to a 17-hydroxy PX-866 derivative.

[6] = target: p110β (Homo sapiens, UniProt P42338); assay: cell based assays, p110β; conditions: in cell based assays
p110β, sequence (P42338 whole entry): as the sequence (P42338 whole entry) above
p110β, sequence (P27986 whole entry partner): as the sequence (P27986 whole entry partner) above
Source text: as §2

[7] = clinical; conditions: human, in vivo
[8] = Phase I trial: clinical pharmacokinetics
[9] = tested on: CUHN015 tumors; assay: direct patient tumor model of SCCHN, CUHN015; type: in vivo, nude mice; conditions: PX-866 2 mg/kg 5 out of 7 days; docetaxel 20 mg/kg IP weekly
Protocol: Briefly, these models employed direct implantation of patients' tumors into nude mice according to Keysar et al., J Clin Oncol 28:15s, 2010 (suppl. abstruct 5558).
Animals were treated with PX-866 alone, and in combination with 20 mg/kg docetaxel dosed intraperitoneally (IP) on a weekly schedule. Saline treated animals and 20 mg/kg docetaxel dosed animals served as controls for the study.

[10] = Phase I trial of oral PX-866: safety, DLT and MTD; type: in vivo, human
Protocol: This was an Open-label dose escalation study with expansion cohort at Maximal Tolerated Dose (MTD), 3+3 design and to test efficacy of 2 dosing schedules (intermittent and continuous). PX-866 was administered as an oral dose.
The primary and secondary objectives were tested using two different dosing regimens: 10 days of drug administration and daily administration for 28 days.
Intermittent schedule: 10 dose levels tested (0.5-16 mg). The starting dose level was 0.5 mg. Doses increased as follows: 100% escalation up to 2 mg, 50% escalation up to 4.5 mg, and approximately 30% escalation until the MTD is identified. The highest dose level at which no more than ⅙ patients experiences DLT was declared the MTD. The resulting dose levels were: 0.5, 1, 2, 3, 4.5, 6, 8, 10, 12 and 16 mg.
FIG. 1 illustrates the dosing schedule for intermittent dosing where PX-866 was given to patients on days 1-5 and 8-12 of a 28-day cycle.
Continuous dosing schedule: The starting dose was two dose levels below the MTD of intermittent dosing (8 mg) and subsequent dose levels was one or two dose levels (10 mg or 8 mg) below the MTD of intermittent dosing dependent on recommendation of the dose cohort review committee. FIG. 1 illustrates the dosing schedule for continuous dosing.

[11] = tested on: advanced solid tumors; assay: Phase I trial of oral PX-866: response per RECIST; type: in vivo, human
Protocol: Patient response was evaluated according to Response Evaluation Criteria in Solid Tumors (RECIST). Briefly, all measurable lesions up to a maximum of five lesions, representative of all involved organs were identified as target lesions and recorded and measured at baseline. Target lesions were selected on the basis of their size (lesions with the longest diameter) and their suitability for accurate repeated measurements (either by imaging techniques or clinically). A sum of the longest diameter (LD) for all target lesions was calculated and reported as the baseline sum LD. The baseline sum LD was used as reference by which to characterize the objective tumor. All other lesions (or sites of disease) were identified as non-target lesions and were also be recorded at baseline. Measurements of these lesions were not required, but the presence or absence of each was noted throughout follow-up.
A Complete Response (CR) indicated a disappearance of all target lesions.

[12] = tested on: PI-3K pathway (p-mTOR and p-S6); assay: Phase I trial: pharmacodynamics in PBMCs stimulated ex vivo, FACS based assay; parameters: species or system human; conditions: PBMCs of treated patients
Protocol: The pharmacodynamic effects of PX-866 in patients treated in the phase I single agent study were assessed using isolated peripheral blood mononuclear cells (PBMCs) stimulated ex vivo via FACS based assay. […] The study provided Evidence for pathway inhibition lasting up to 3 days post-treatment.

[13] = tested on: p-AKT/T-AKT; assay: Phase I trial: p-AKT/T-AKT pharmacodynamics; type: in vivo, human; conditions: 3 of 4 patients at 8 mg, 4 hours after a single oral dose
[14] = tested on: A549 lung tumor xenografts; conditions: 2 mg/kg PX-866 daily treatment groups
Protocol: H460 and A549 lung tumor xenografts were implanted subcutaneously in nude mice according to previously described procedures. PX-866 was tested on both a daily (2 mg/kg) and every-other-day dosing (3 mg/kg) schedule alone, and in combination with a 10 mg/kg dose of docetaxel. The dosing schedule of PX-866 relative to docetaxel was varied to test the effect of docetaxel treatment prior to or subsequent to PX-866 treatment. A table of the following dosing regimens is as follows with animals in Group 1 receiving a daily vehicle: […]

[15] = aqueous solutions at 37° C. or 0° C. at neutral pH; cited from earlier work
[16] = in vivo; cited from earlier work

PIK3CA, sequence (P42336 whole entry): as the sequence (P42336 whole entry, canonical isoform) above
PIK3CA, sequence (P27986 whole entry partner): as the sequence (P27986 whole entry partner) above

Compound `C=CCN(C=C1C(=O)OC(COC)C2(C)C1=C(O)C(=O)C1=C2C(OC(C)=O)CC2(C)C(O)CCC12)CC=C` (centres unmarked) [17-OH PX-866] has an IC50 [1] of 0.014 µM, an IC50 [2] of 0.057 µM and an IC50 [3] of 0.131 µM. For the same compound, the IC50 [4] was 0.148 µM, the increase in potency ([5]; cell proliferation assays versus p110α and p110β isoforms, relative to PX-866) was 2-5 fold and the IC50 [5] was 0.014 µM. The IC50 [6] was 0.057 µM, the AUC(0-t) ([7]; 8 mg) was 4.22 ng·h/mL and the Cmax ([7]; 8 mg) was 1.14 ng/mL. The half-life ([7]; 8 mg) was 3.62 h, the Tmax ([7]; po) was 0.67 to 1.07 h and the drug accumulation ([8]; 12 mg cohort, intermittent dosing) was “no evidence of drug accumulation”. The “AUC in humans compared with mice” value ([8]; due to increased mean residence time in humans) was “exceeded AUC in mice” and the “Cmax in humans compared with mice” value ([8]; mice treated at an efficacious dose of PX-866 (2 mg/kg)) was “equal to or exceed peak levels observed in mice”.

With `CC(=O)O[C@@]12CO[C@@H]1C[C@H](O)[C@@]1(C)C(=O)[C@H](O)C3=C(C)[C@@H](OC(=O)[C@H](O)[C@@H](NC(=O)OC(C)(C)C)c4ccccc4)C[C@@](O)([C@@H](OC(=O)c4ccccc4)[C@H]21)C3(C)C` [docetaxel, (2R,3S)—N-carboxy-3-phenylisoserine,N-tert-butyl ester, 13-ester with 5β-20-epoxy-1,2α,4,7β,10β,13α-hexahydroxytax-11-en-9-one 4-acetate 2-benzoate, trihydrate] the tumor growth [9] was “no effect on tumor growth”.

`C=CCN(/C=C1/C(=O)O[C@H](COC)[C@@]2(C)C1=C(O)C(=O)C1=C2[C@H](OC(C)=O)C[C@]2(C)C(=O)CC[C@@H]12)CC=C` [PX-866, Acetic acid 4-diallylaminomethylene-6-hydroxy-1-α-methoxymethyl-10β,13β-dimethyl-3,7,17-trioxo-1,3,4,7,10,11β,12,13,14α,15,16,17-dodecahydro-2-oxa-cyclopenta[α]phenanthren-11-yl ester] showed an IC50 [1] of 0.039 µM, an IC50 [2] of 0.088 µM and an IC50 [3] of 0.124 µM. For the same compound, the IC50 [4] was 0.198 µM, the IC50 [5] was 0.039 µM and the IC50 [6] was 0.088 µM. For the same compound, the ALT/AST elevation ([10]; continuous dosing) was “ALT/AST elevation was observed”, the “Most common adverse events (AEs)” value ([10]; continuous dosing) was “diarrhea, nausea, vomiting, headache and fatigue” and the “DLT, patients” value ([10]; continuous dosing, 10 mg per day) was 2/3. The “Most common adverse events (AEs)” value ([10]; intermittent dosing) was “diarrhea, nausea, vomiting, and constipation”, the “toxicity in patients receiving >2 cycles” value ([10]; intermittent dosing schedule) was “No significant increase in toxicity” and the “Dose limiting toxicity (DLT), patients” value ([10]; intermittent dosing, 16 mg per day) was 2/5. The “Maximal Tolerated Dose (MTD) for continuous dosing” value ([10]; oral, daily for 28 days) was 8 mg per day, the “Maximal Tolerated Dose (MTD) for intermittent dosing” value ([10]; oral, days 1-5 and 8-12 of a 28-day cycle) was 12 mg per day and the “Disease stabilization, patients” value ([11]; continuous dosing) was 71%. For the same compound, the “Disease stabilization, patients” value ([11]; intermittent dosing) was 16%, the “duration of pathway inhibition post-treatment” value [12] was “up to 3 days” and the “decrease in p-AKT/T-AKT” value [13] was ≥ 60%. For the same compound, the mortality [14] was “Increased mortality”, the “conversion of parent to 17-OH metabolite” value ([8]; oral, patients) was “rapid conversion” and the “plasma level of parent” value ([8]; oral, patients, with rare exceptions) was “below the limits of detection”.

In the case of `COC[C@H]1OC(=O)c2coc3c2[C@@]1(C)C1=C(C3=O)[C@@H]2CCC(=O)[C@@]2(C)C[C@H]1OC(C)=O` [Wortmannin], the stability [15] is given as “subject to decomposition by hydrolytic opening of the furan ring” and the toxicity [16] is given as “liver and hematologic toxicity”.
